Patent publication US12264159B2, “Functionalized heterocycles as antiviral agents” (Enanta Pharmaceuticals, Inc., priority 2018, dated 2025)
pEC50: −log10 of the molar value.

Columns and labels:
[1] = system: HBV in 2.2.15 cells; experiment: 2.2.15 cells: viral product in cell lysates quantified via quantitative real time PCR; format: cell-based, hepatitis B virus (HBV); details: Hepatitis B virus, 120 h, day 5 post treatment, 50% reduction of viral product vs no drug controls, readout (qPCR, HBsAg or HBeAg) not specified for the column
Protocol: 2.2.15 cells are passaged upon attaining confluency in DMEM/F12 media in the presence of 10% FBS, Penn/Strep, and 250 ug/mL G418. Novel compounds are 5 fold serially diluted in DMSO and added to 96 well plates containing 35,000 cells/well at a 1:200 dilution so that the final concentration of DMSO is 0.5%. On day 5, post treatment cell lysates and supernatants are harvested for analysis.
Cells are lysed using Agilent Sidestep Lysis buffer, diluted 1:100 and quantified via quantitative real time PCR. Commercially available ELISA kits are used to quantitate the viral proteins HBsAg (Alpco) or HBeAg (US Biological) by following the manufacturer's recommended protocol after diluting samples to match the linear range of their respective assays. Irrespective of readout, compound concentrations that reduce viral product accumulation in the cell lysates or supernatants by 50% relative to no drug controls (EC50) are reported; EC50 ranges are as follows: A<0.1 μM; B 0.2-1 μM; C>1 μM.

[2] = Compound induced cellular toxicity in HepG2 cells, ATPlite 1Step; format: cell-based; details: human, three days exposure, 50% reduction of total ATP vs no drug controls
Protocol: At day 3, post seeding cells are treated with ATPlite 1Step according to the manufacturer's instructions.

Structure (SMILES)	pEC50 [1]	CC50 at 3 days [2]
CC(C)(C)[C@@H]1Cn2nc(C3CC3)c(-c3ccccc3)c2-c2cc(=O)c(C(=O)O)cn21 [Example 149, (R)-6-(tert-butyl)-2-cyclopropyl-10-oxo-1-phenyl-5,6-dihydro-10H-pyrazolo[1,5-a]pyrido[2,1-c]pyrazine-9-carboxylic acid]	> 7.00	> 25000 nM
CC(C)(C)[C@@H]1Cn2nc(-c3ccc(F)cc3)c(-c3cccc(F)c3)c2-c2cc(=O)c(C(=O)O)cn21 [Example 168, (R)-6-(tert-butyl)-1-(3-fluorophenyl)-2-(4-fluorophenyl)-10-oxo-5,6-dihydro-10H-pyrazolo[1,5-a]pyrido[2,1-c]pyrazine-9-carboxylic acid]	> 7.00	10000 to 25000 nM
COCCOc1ccccc1-c1cc2n(n1)C[C@@H](C(C)(C)C)n1cc(C(=O)O)c(=O)cc1-2 [Example 79, (R)-6-(tert-butyl)-2-(2-(2-methoxyethoxy)phenyl)-10-oxo-5,6-dihydro-10H-pyrazolo[1,5-a]pyrido[2,2-c]pyrazine-12-carboxylic acid]	> 7.00	> 25000 nM
C[C@@H]1Cn2nc(-c3ccccc3F)c(-c3ccccc3F)c2-c2cc(=O)c(C(=O)O)cn21 [Example 206, (R)-1,2-bis(2-fluorophenyl)-6-methyl-10-oxo-5,6-dihydro-10H-pyrazolo[1,5-a]pyrido[2,1-c]pyrazine-9-carboxylic acid]	> 7.00	10000 to 25000 nM
CC(C)(C)[C@@H]1Cn2ncc(-c3cccc(OC(F)(F)F)c3)c2-c2cc(=O)c(C(=O)O)cn21 [Example 116, (R)-6-(tert-butyl)-10-oxo-1-(3-(trifluoromethoxy)phenyl)-5,6-dihydro-10H-pyrazolo[1,5-a]pyrido[2,1-c]pyrazine-9-carboxylic acid]	> 7.00	> 25000 nM
CC(C)(C)[C@@H]1Cn2ncc(-c3cccc(F)c3)c2-c2cc(=O)c(C(=O)O)cn21 [Example 103, (R)-6-(tert-butyl)-1-(3-fluorophenyl)-10-oxo-5,6-dihydro-10H-pyrazolo[1,5-a]pyrido[2,1-c]pyrazine-9-carboxylic acid]	> 7.00	> 25000 nM
CC(C)[C@@H]1Cn2nc(-c3ccccc3)c(-c3ccccc3)c2-c2cc(=O)c(C(=O)O)cn21 [Example 179, (R)-6-isopropyl-10-oxo-1,2-diphenyl-5,6-dihydro-10H-pyrazolo[1,5-a]pyrido[2,1-c]pyrazine-9-carboxylic acid]	> 7.00	> 25000 nM
CC(C)(C)[C@@H]1Cn2ncc(-c3ccco3)c2-c2cc(=O)c(C(=O)O)cn21 [Example 108, (R)-6-(tert-butyl)-1-(furan-2-yl)-10-oxo-5,6-dihydro-10H-pyrazolo[1,5-a]pyrido[2,1-c]pyrazine-9-carboxylic acid]	> 7.00	10000 to 25000 nM
CC(C)(C)[C@@H]1Cn2ncc(-c3ccc4c(c3F)OCO4)c2-c2cc(=O)c(C(=O)O)cn21 [Example 122, (R)-6-(tert-butyl)-1-(4-fluorobenzo[d][1,3]dioxol-5-yl)-10-oxo-5,6-dihydro-10H-pyrazolo[1,5-a]pyrido[2,1-c]pyrazine-9-carboxylic acid]	> 7.00	> 25000 nM
CC(C)[C@@H]1Cn2nc(C3CC3)c(-c3cccc(F)c3)c2-c2cc(=O)c(C(=O)O)cn21 [Example 134, (R)-2-cyclopropyl-1-(3-fluorophenyl)-6-isopropyl-10-oxo-5,6-dihydro-10H-pyrazolo[1,5-a]pyrido[2,1-c]pyrazine-9-carboxylic acid]	> 7.00	> 25000 nM
CC(C)(C)[C@@H]1Cn2nc(-c3ccc(F)cc3)c(-c3ccccc3)c2-c2cc(=O)c(C(=O)O)cn21 [Example 166, (R)-6-(tert-butyl)-2-(4-fluorophenyl)-10-oxo-1-phenyl-5,6-dihydro-10H-pyrazolo[1,5-a]pyrido[2,1-c]pyrazine-9-carboxylic acid]	> 7.00	> 25000 nM
CC(C)(C)[C@@H]1Cn2nc(-c3ccccc3OC3CC3)cc2-c2cc(=O)c(C(=O)O)cn21 [Example 81, (R)-6-(tert-butyl)-2-(2-cyclopropoxyphenyl)-10-oxo-5,6-dihydro-10H-pyrazolo[1,5-a]pyrido[2,2-c]pyrazine-12-carboxylic acid]	> 7.00	> 25000 nM
CC(C)[C@@H]1Cn2nc(C3CC3)c(-c3cccc(O)c3)c2-c2cc(=O)c(C(=O)O)cn21 [Example 142, (R)-2-cyclopropyl-1-(3-hydroxyphenyl)-6-isopropyl-10-oxo-5,6-dihydro-10H-pyrazolo[1,5-a]pyrido[2,1-c]pyrazine-9-carboxylic acid]	> 7.00	> 25000 nM
CC(C)(C)[C@@H]1Cn2ncc(-c3ccc(F)cc3)c2-c2cc(=O)c(C(=O)O)cn21 [Example 101, (R)-6-(tert-butyl)-1-(4-fluorophenyl)-10-oxo-5,6-dihydro-10H-pyrazolo[1,5-a]pyrido[2,1-c]pyrazine-9-carboxylic acid]	> 7.00	> 25000 nM
CC(C)(C)[C@@H]1Cn2nc(-c3ccc(F)cc3)c(F)c2-c2cc(=O)c(C(=O)O)cn21 [Example 93, (R)-6-(tert-butyl)-1-fluoro-2-(4-fluorophenyl)-10-oxo-5,6-dihydro-10H-pyrazolo[1,5-a]pyrido[2,1-c]pyrazine-9-carboxylic acid]	> 7.00	> 25000 nM
CC(C)(C)[C@@H]1Cn2nc(-c3cccc(F)c3)c(-c3cccc(F)c3)c2-c2cc(=O)c(-c3ncn[nH]3)cn21 [Example 193, (R)-6-(tert-butyl)-1,2-bis(3-fluorophenyl)-9-(1H-1,2,4-triazol-5-yl)-5,6-dihydro-10H-pyrazolo[1,5-a]pyrido[2,1-c]pyrazin-10-one]	> 7.00	> 25000 nM
COc1ccccc1-c1cnn2c1-c1cc(=O)c(C(=O)O)cn1[C@H](C(C)(C)C)C2 [Example 112, (R)-6-(tert-butyl)-1-(2-methoxyphenyl)-10-oxo-5,6-dihydro-10H-pyrazolo[1,5-a]pyrido[2,1-c]pyrazine-9-carboxylic acid]	> 7.00	> 25000 nM
CC(C)(C)[C@@H]1Cn2ncc(-c3ccoc3)c2-c2cc(=O)c(C(=O)O)cn21 [Example 102, (R)-6-(tert-butyl)-1-(furan-3-yl)-10-oxo-5,6-dihydro-10H-pyrazolo[1,5-a]pyrido[2,1-c]pyrazine-9-carboxylic acid]	> 7.00	> 25000 nM
CC(C)Oc1ccccc1-c1cc2n(n1)C[C@@H](C(C)(C)C)n1cc(C(=O)O)c(=O)cc1-2 [Example 82, (R)-6-(tert-butyl)-2-(2-isopropoxyphenyl)-10-oxo-5,6-dihydro-10H-pyrazolo[1,5-a]pyrido[2,2-c]pyrazine-12-carboxylic acid]	> 7.00	> 25000 nM
CC(C)(C)[C@@H]1Cn2nc(-c3cccc(F)c3)c(-c3cccc(F)c3)c2-c2cc(=O)c(C(=O)O)cn21 [Example 94, (R)-6-(tert-butyl)-1,2-bis(3-fluorophenyl)-10-oxo-5,6-dihydro-10H-pyrazolo[1,5-a]pyrido[2,1-c]pyrazine-9-carboxylic acid]	> 7.00	> 25000 nM
COc1ccccc1-c1cc2n(n1)C[C@@H](C(C)(C)C)n1cc(C(=O)O)c(=O)cc1-2 [Example 12]	> 7.00	> 25000 nM
CC(C)[C@@H]1Cn2nc(-c3cccnc3)c(-c3cccnc3)c2-c2cc(=O)c(C(=O)O)cn21 [Example 177, (R)-6-isopropyl-10-oxo-1,2-di(pyridin-3-yl)-5,6-dihydro-10H-pyrazolo[1,5-a]pyrido[2,1-c]pyrazine-9-carboxylic acid]	6.00 to 6.70	–
CC(C)(C)[C@@H]1Cn2nc(-c3cc(F)ccc3OCC(F)(F)F)c(Cl)c2-c2cc(=O)c(C(=O)O)cn21 [Example 89, (R)-6-(tert-butyl)-1-chloro-2-(5-fluoro-2-(2,2,2-trifluoroethoxy)phenyl)-10-oxo-5,6-dihydro-10H-pyrazolo[1,5-a]pyrido[2,1-c]pyrazine-9-carboxylic acid]	> 7.00	–
CC(C)(C)[C@@H]1Cn2ncc(-c3ccncc3)c2-c2cc(=O)c(C(=O)O)cn21 [Example 119, (R)-6-(tert-butyl)-10-oxo-1-(pyridin-4-yl)-5,6-dihydro-10H-pyrazolo[1,5-a]pyrido[2,1-c]pyrazine-9-carboxylic acid]	> 7.00	–
CC(C)[C@@H]1Cn2nc(-c3ccncc3)c(-c3ccncc3)c2-c2cc(=O)c(C(=O)O)cn21 [Example 175, (R)-6-isopropyl-10-oxo-1,2-di(pyridin-4-yl)-5,6-dihydro-10H-pyrazolo[1,5-a]pyrido[2,1-c]pyrazine-9-carboxylic acid]	6.00 to 6.70	–
CC(C)(C)[C@@H]1Cn2nc(-c3ccc(F)cc3)c(Cl)c2-c2cc(=O)c(C(=O)O)cn21 [Example 87, (R)-6-(tert-butyl)-1-chloro-2-(4-fluorophenyl)-10-oxo-5,6-dihydro-10H-pyrazolo[1,5-a]pyrido[2,1-c]pyrazine-9-carboxylic acid]	> 7.00	–
CC(C)(C)[C@@H]1Cn2cc(-c3ccc(F)cc3)nc2-c2cc(=O)c(C(=O)O)cn21 [Example 90, (R)-6-(tert-butyl)-2-(4-fluorophenyl)-10-oxo-5,6-dihydro-10H-imidazo[1,2-a]pyrido[2,1-c]pyrazine-9-carboxylic acid]	6.00 to 6.70	–
